Assay results from patent US8901168B2 (priority 2007, dated 2014).

Test system: anti-TT antibodies
Parameters: species or system BALB/c mice
Settings: mouse, in vivo

SMILES | anti-TT Ig titres | anti-TT antibody titres after the third vaccination vs α-T treated mice | anti-TT antibody titres after the third vaccination, ranking of groups | antibody titres after the third immunisation as compared to first immunisation
CC(C)=CCC/C(C)=C/CC/C(C)=C/CC[C@]1(C)CCc2cc(O)cc(C)c2O1 [δ-T3, δ-tocotrienol] | significantly (P<0.05) enhanced | significantly (P<0.01) higher | highest | highly significant (P<0.01) antibody titres
Cc1c(C)c2c(c(C)c1O)CC[C@@](C)(CCC[C@H](C)CCC[C@H](C)CCCC(C)C)O2 [α-T, α-tocopherol] | significantly (P<0.05) enhanced |  |  | 
